Assay [1] deals with Actinobacillus actinomycetemcomitans (Aa) ATCC cat#29522. Put plainly: Bacterial invasion of human periodontal ligament fibroblasts by Actinobacillus actinomycetemcomitans (internalized colony count). In kind it is cell-based. The conditions noted are these: for reduces internalized Actinobacillus actinomycetemcomitans: versus Aa alone, HPdLF cells. As to the method: (§1) Human periodontal ligament fibroblasts (HPdLF, Lonza cat#CC-7049) are seeded onto a plate and incubated at 37° C. in 5% CO2 overnight using SCGM bullet kit (Lonza, #CC-3205) containing Stromal cell basal medium, hFGF-B, insulin, FBS and GA-1000.
(§2) Pathogenic bacteria Actinobacillus actinomycetemcomitans (Aa) ATCC cat#29522 or Porphyromonas gingivalis (Pg) ATCC cat#33277) are incubated overnight at 37° C. (using tryptic soy broth for Actinobacillus actinomycetemcomitans and half-strength brain heart infusion (supplemented with yeast extract, hemin and vitK1) for Porphyromonas gingivalis). The optical density (OD) at 610 nm is read. The bacteria are centrifuged at 8000 rpm for 10 mins and the pellet resuspended in cell culture media and diluted to OD610 of 0.1 to 0.2.
(§3) The test sample (dissolved in water) is added to the cells and incubated at 37 C in 5% CO2 incubator for 30 minutes before the bacteria are added. The cells are infected with bacteria by adding the resuspended bacteria to the cells and further incubating at 37° C. in 5% CO2 incubator for 90 to 120 minutes.
The cells are washed five times with PBS to remove non-adherent bacteria. Fresh cell culture medium containing 1× penicillin (100 IU) and streptomycin (100 μg/ml) is added and the cells incubated at 37° C. in 5% CO2 incubator for 2 hours to kill extracellular bacteria. The medium is then removed and the cells washed three times with PBS. 1 ml 1% saponin solution in PBS is added to the infected cells for 5 minutes at. 37° C. to lyse the cells and release internalized bacteria. Dilutions (serial dilutions in PBS with dilution factor 10) are plated onto a suitable medium using a 100 μl sample and spread with a sterilized stick before incubating in an anaerobic chamber at 37° C. for 2-3 days and counting the resultant bacterial colonies.

The subject of assay [2] is Porphyromonas gingivalis (Pg) ATCC cat#33277. As to the kind of experiment: Bacterial invasion of human periodontal ligament fibroblasts by Porphyromonas gingivalis (internalized colony count). In kind it is cell-based. As to the method: as §1, §2, §3
The cells are washed five times with PBS to remove non-adherent bacteria. Fresh cell culture medium containing 1× penicillin (100 IU) and streptomycin (100 μg/ml) is added and the cells incubated at 37° C. in 5% CO2 incubator for 2 hours to kill extracellular bacteria. […]

Results on two compounds are retold here after patent US20160296437A1, “ORAL CARE ZINC COMPOSITIONS” (COLGATE-PALMOLIVE COMPANY, priority 2013, published 2016).

Structures are written as SMILES.

As for `[O]=[Zn]` [ZnO, zinc oxide], the “Bacterial Count” value was found to be 10040 in assay [1] (Table 1, internalized Aa in HPdLF cells pretreated 30 minutes with sample, ZnO concentration not given, Aa alone 11800); 137 in assay [1] (Table 2, internalized Aa in HPdLF cells, sample at 4 ppm, Aa alone 178); 10760 in assay [2] (Table 1, internalized Pg in HPdLF cells pretreated 30 minutes with sample, ZnO concentration not given, Pg alone 11460). Also, the “reduces internalized Actinobacillus actinomycetemcomitans” value in assay [1] (Table 1 experiment) is recorded as “approximately 15%”; in assay [1] (Table 2 experiment, at 4 ppm) it was “approximately 23%”. The “reduces internalized Porphyromonas gingivalis” value in assay [2] (Table 1 experiment, versus Pg alone, HPdLF cells) is recorded as “approximately 6%”.
As for `O=C([O-])CC(O)(CC(=O)[O-])C(=O)[O-].O=C([O-])CC(O)(CC(=O)[O-])C(=O)[O-].[Zn+2].[Zn+2].[Zn+2]` [ZnCitrate, zinc citrate], the “Bacterial Count” value in assay [1] (Table 2, internalized Aa in HPdLF cells, sample at 8 ppm, Aa alone 178) came to 64. Moreover, the “reduces internalized Actinobacillus actinomycetemcomitans” value in assay [1] (Table 2 experiment, at 8 ppm) is listed as “approximately 66%”.
